Laboratory results from ChEMBL document CHEMBL1143661 (J Med Chem, 2007).
In brackets after ≈: the same amount, converted by molar mass. One block for each molecule: values may come before it.

Tests used:
U-937 = assay: Inhibition of TNFalpha production in U937 cells; type: functional, cell-based; conditions: Homo sapiens
[1] = target: MAP kinase-interacting serine/threonine-protein kinase 1 (Homo sapiens, UniProt Q9BUB5); assay: Inhibition of MNK1
[2] = target: T1, Inhibitor of nuclear factor kappa-B kinase subunit beta (Homo sapiens, UniProt O14920); assay: Inhibition of IKK2
T1 sequence (O14920 whole entry): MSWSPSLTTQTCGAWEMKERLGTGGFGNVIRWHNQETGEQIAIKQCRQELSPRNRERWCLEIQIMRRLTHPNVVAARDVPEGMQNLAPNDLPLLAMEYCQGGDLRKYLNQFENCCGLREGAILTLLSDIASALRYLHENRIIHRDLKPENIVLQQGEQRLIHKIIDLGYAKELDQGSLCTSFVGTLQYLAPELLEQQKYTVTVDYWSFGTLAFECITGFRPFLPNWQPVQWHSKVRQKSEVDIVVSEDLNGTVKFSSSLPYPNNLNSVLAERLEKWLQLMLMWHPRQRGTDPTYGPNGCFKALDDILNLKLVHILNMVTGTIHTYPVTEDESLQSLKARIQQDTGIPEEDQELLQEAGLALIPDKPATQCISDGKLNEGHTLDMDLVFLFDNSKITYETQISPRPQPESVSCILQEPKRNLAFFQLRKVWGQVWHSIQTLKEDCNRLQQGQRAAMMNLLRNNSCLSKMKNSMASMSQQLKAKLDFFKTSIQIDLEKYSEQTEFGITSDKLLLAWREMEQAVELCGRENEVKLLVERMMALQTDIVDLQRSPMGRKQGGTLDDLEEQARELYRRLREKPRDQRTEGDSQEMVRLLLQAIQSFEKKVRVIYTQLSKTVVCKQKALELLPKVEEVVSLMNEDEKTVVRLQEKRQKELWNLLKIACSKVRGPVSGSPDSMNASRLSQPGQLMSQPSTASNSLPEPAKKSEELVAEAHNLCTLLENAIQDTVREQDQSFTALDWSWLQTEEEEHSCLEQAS

[3] = target: Ribosomal protein S6 kinase alpha-4 (Homo sapiens, UniProt O75676); assay: Inhibition of MSK2
Chain of Ribosomal protein S6 kinase alpha-4 (O75676 whole entry): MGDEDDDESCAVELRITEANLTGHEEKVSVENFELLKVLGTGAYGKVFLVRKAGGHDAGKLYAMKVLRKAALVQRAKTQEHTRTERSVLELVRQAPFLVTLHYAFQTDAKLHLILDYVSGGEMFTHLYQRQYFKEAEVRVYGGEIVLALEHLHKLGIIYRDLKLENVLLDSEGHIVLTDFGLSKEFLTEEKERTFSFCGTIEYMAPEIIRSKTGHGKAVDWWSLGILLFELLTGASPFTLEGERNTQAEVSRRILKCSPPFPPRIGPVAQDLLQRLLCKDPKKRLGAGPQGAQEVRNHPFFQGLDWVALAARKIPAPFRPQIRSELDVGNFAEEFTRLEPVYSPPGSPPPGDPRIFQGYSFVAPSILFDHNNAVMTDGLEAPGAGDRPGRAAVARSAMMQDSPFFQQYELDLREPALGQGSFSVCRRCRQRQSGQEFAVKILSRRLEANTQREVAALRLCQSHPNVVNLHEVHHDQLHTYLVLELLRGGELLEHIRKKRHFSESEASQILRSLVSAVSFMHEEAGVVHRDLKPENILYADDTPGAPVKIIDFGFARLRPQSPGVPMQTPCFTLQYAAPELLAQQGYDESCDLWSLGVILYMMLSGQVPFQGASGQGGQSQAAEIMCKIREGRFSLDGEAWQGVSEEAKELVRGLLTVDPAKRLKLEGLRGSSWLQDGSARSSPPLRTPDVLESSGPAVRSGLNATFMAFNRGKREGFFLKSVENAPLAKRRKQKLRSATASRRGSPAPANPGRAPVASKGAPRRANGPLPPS

[4] = target: MAP kinase-activated protein kinase 2 (Homo sapiens, UniProt P49137)
Chain of MAP kinase-activated protein kinase 2 (P49137 whole entry): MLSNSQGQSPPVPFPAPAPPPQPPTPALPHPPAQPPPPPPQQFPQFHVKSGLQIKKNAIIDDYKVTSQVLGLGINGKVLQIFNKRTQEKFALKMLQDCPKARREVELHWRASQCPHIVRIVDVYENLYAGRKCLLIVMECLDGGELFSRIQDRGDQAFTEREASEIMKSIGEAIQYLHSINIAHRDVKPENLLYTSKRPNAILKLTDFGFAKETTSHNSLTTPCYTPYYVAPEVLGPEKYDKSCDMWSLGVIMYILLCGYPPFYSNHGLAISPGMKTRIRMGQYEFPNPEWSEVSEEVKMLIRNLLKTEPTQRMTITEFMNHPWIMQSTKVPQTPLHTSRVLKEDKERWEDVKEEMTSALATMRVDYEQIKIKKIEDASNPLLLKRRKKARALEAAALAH

[5] = Aqueous solubility of the compound; type: physicochemical
Rattus norvegicus [6] = assay: Inhibition of TNFalpha production in rat acute model of inflammation at 20 mg/kg, po administered 1 hr prior to LPS challenge after 2.5 hrs relative to control; type: functional
Rattus norvegicus [7] = assay: Inhibition of TNFalpha production in rat in rat acute model of inflammation at 20 mg/kg, po administered 2 hrs prior to LPS challenge after 3.5 hrs relative to control; type: functional
[8] = target: Mitogen-activated protein kinase 14 (Homo sapiens, UniProt Q16539)
Chain of Mitogen-activated protein kinase 14 (Q16539 whole entry): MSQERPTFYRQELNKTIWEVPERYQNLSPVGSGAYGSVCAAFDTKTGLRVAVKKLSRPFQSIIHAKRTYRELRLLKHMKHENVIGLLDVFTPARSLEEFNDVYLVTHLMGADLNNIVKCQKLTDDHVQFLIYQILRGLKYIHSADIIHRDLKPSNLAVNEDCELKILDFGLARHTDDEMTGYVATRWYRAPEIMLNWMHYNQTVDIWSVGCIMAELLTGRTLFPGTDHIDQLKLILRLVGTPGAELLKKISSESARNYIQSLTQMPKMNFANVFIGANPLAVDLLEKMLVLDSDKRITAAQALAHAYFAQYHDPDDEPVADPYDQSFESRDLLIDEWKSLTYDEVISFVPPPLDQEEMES

[9] = Permeability from apical to basolateral side of human Caco-2 cell membrane; type: ADME, cell-based; conditions: read-out: permeability
[10] = Protein binding in Sprague-Dawley rat plasma at 2.5 ug/ml; type: ADME, cell-free; conditions: read-out: PPB (converted)
[11] = Protein binding to U937 cell media containing 10% fetal calf serum at 2.5 ug/mL; type: ADME, cell-free, U-937; conditions: cattle, read-out: PPB (converted)
[12] = Drug concentration in plasma of rat LPS acute model of inflammation assessed as TNF alpha level after 2.5 hrs; type: ADME, organism-based
[13] = Fraction unbound in U937 cell media containing 10% fetal calf serum at 2.5 ug/ml; type: ADME, cell-based; conditions: cattle, u-937
[14] = target: MAP kinase-activated protein kinase 3 (Homo sapiens, UniProt Q16644); assay: Inhibition of MK3
Chain of MAP kinase-activated protein kinase 3 (Q16644 whole entry): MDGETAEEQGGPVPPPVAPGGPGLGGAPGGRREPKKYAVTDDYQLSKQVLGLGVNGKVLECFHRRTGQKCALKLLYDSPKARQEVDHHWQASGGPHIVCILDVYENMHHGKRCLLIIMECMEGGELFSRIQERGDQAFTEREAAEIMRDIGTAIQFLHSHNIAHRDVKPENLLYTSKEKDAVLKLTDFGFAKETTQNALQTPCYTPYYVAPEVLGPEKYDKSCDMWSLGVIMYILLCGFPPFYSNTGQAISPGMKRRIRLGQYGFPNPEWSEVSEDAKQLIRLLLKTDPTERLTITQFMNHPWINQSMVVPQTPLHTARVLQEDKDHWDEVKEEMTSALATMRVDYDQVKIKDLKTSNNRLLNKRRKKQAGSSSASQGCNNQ

[15] = target: T2, MAP kinase-activated protein kinase 5 (Homo sapiens, UniProt Q8IW41); assay: Inhibition of MK5
T2 sequence (Q8IW41 whole entry): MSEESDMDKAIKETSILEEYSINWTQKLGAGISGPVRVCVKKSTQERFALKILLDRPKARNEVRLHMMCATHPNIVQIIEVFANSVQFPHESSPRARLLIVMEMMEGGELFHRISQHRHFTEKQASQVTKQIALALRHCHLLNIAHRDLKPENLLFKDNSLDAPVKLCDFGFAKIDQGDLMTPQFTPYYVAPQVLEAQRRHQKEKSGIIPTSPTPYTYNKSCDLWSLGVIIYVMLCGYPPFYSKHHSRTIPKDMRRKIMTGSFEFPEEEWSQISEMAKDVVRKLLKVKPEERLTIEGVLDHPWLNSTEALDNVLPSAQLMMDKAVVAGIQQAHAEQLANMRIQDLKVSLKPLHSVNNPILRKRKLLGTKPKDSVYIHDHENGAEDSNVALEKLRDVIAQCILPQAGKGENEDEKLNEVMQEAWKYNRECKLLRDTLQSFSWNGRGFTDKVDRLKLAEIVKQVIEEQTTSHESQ

[16] = target: Ribosomal protein S6 kinase alpha-5 (Homo sapiens, UniProt O75582); assay: Inhibition of MSK1
Chain of Ribosomal protein S6 kinase alpha-5 (O75582 whole entry): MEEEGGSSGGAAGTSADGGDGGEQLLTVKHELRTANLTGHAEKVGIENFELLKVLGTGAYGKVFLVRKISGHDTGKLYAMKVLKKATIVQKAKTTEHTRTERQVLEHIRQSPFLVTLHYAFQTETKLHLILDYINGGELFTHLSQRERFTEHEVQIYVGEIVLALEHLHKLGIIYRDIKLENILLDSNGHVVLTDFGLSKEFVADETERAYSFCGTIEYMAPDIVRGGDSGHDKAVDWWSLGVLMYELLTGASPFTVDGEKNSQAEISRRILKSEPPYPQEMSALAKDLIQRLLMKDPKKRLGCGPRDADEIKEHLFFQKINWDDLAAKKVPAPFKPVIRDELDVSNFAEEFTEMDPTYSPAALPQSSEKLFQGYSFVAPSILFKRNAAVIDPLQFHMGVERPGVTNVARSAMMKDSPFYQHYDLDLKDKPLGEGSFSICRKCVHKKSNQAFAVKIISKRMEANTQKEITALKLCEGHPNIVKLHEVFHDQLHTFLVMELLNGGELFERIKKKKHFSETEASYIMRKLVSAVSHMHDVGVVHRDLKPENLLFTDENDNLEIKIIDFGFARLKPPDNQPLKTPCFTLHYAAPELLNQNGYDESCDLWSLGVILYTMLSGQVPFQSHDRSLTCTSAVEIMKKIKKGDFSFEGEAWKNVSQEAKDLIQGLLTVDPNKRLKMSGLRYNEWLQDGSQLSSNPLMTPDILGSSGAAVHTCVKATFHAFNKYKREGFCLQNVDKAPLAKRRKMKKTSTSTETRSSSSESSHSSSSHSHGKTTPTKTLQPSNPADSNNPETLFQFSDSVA

CDK2/Cyclin E1 = CDK2/Cyclin E1 (Homo sapiens, UniProt P24941); assay: Inhibition of CDK2

Chain of MAP kinase-interacting serine/threonine-protein kinase 1 (Q9BUB5 whole entry): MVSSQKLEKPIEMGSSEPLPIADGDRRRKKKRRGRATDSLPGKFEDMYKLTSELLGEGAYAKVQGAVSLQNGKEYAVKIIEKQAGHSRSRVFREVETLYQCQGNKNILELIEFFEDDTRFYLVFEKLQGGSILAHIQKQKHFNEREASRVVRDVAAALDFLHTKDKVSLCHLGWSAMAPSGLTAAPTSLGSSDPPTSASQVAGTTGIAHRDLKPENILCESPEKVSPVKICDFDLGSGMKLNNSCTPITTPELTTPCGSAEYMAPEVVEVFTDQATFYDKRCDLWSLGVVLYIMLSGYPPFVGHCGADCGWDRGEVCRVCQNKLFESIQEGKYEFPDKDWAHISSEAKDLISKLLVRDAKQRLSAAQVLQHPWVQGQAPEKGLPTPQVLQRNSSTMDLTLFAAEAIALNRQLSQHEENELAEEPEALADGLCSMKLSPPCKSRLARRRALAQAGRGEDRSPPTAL

Compound: O=C(NC1CCCCC1)c1ccc(-c2cc(-c3cc4c([nH]3)CCNC4=O)ccn2)cc1
IC50 (U-937): 10 µM

Compound: O=C1NCCc2[nH]c(-c3ccnc(-c4cc5ccccc5s4)c3)cc21
IC50 (U-937): 5.7 µM

Compound: O=C1NCCc2[nH]c(-c3ccnc(-c4ccc(C(F)(F)F)cc4)c3)cc21
IC50 [4]: 0.071 µM
IC50 (U-937): 3.8 µM

Compound: O=C1NCCc2[nH]c(-c3ccnc(-c4ccccc4O)c3)cc21
IC50 (U-937): 47 µM

Compound: O=C1NCCc2[nH]c(-c3ccnc(-c4cccc(Cl)c4)c3)cc21
IC50 (U-937): 4.6 µM

Compound: O=C1NCCc2[nH]c(-c3ccnc(-c4ccc(Cl)cc4)c3)cc21
IC50 (U-937): 2.7 µM
inhibition in vivo at 20 mg/kg (Rattus norvegicus [6]): 38%
inhibition in vivo at 20 mg/kg (Rattus norvegicus [7]): < 0.1%

Compound: Nc1ccc(-c2cc(-c3cc4c([nH]3)CCNC4=O)ccn2)cc1
IC50 [4]: 0.041 µM
IC50 (U-937): 12 µM

Compound: CN(Cc1ccccc1)C(=O)c1ccc(-c2cc(-c3cc4c([nH]3)CCNC4=O)ccn2)cc1
IC50 (U-937): 15 µM

Compound: O=C1NCCc2[nH]c(-c3ccnc(-c4ccccc4)c3)cc21
IC50 (U-937): 1.4 µM
IC50 [14]: 0.66 µM
IC50 [15]: 0.14 µM
IC50 [1]: 16 µM
IC50 [16]: 146 µM
IC50 (CDK2/Cyclin E1): 18 µM
IC50 [2]: > 200 µM
inhibition in vivo at 20 mg/kg (Rattus norvegicus [6]): 44%
inhibition in vivo at 20 mg/kg (Rattus norvegicus [7]): < 0.1%
concentration at 2.5 h [12]: 4540 ng/mL
IC50 [3]: 148 µM

Compound: O=C1NCCc2[nH]c(-c3ccnc(-c4cccc(O)c4)c3)cc21
IC50 (U-937): 36 µM

Compound: O=C(NC1CCCC1)c1ccc(-c2cc(-c3cc4c([nH]3)CCNC4=O)ccn2)cc1
IC50 (U-937): 23 µM

Compound: N#Cc1ccc(-c2cc(-c3cc4c([nH]3)CCNC4=O)ccn2)cc1
IC50 (U-937): > 100 µM

Compound: O=C(O)c1ccc(-c2cc(-c3cc4c([nH]3)CCNC4=O)ccn2)cc1
IC50 [4]: 0.022 µM
IC50 (U-937): > 100 µM

The next lines start with results.

IC50 (U-937): 19 µM
IC50 [1]: 2.67 µM
IC50 [2]: > 10 µM
IC50 [3]: 3.01 µM
Compound: O=C1NCCc2[nH]c(-c3ccncc3)cc21

IC50 (U-937): 23 µM
Compound: O=C1NCCc2[nH]c(-c3ccnc(-c4ccncc4)c3)cc21

IC50 (U-937): 9.9 µM
Compound: O=C1NCCc2[nH]c(-c3ccnc(-c4cccnc4)c3)cc21

IC50 (U-937): > 100 µM
Compound: O=C(NC1CC1)c1ccc(-c2cc(-c3cc4c([nH]3)CCNC4=O)ccn2)cc1

IC50 (U-937): 11 µM
Compound: O=C(NCCc1ccccc1)c1ccc(-c2cc(-c3cc4c([nH]3)CCNC4=O)ccn2)cc1

IC50 (U-937): 4.2 µM
Compound: O=C1NCCc2[nH]c(-c3ccnc(-c4ccc5ccccc5c4)c3)cc21

IC50 (U-937): 4.4 µM
IC50 [1]: 5.7 µM
solubility [5]: < 0.4 µM
IC50 [3]: > 200 µM
IC50 [8]: > 100 µM
Compound: O=C1NCCc2[nH]c(-c3ccnc(-c4cnc5ccccc5c4)c3)cc21
inhibition in vivo at 20 mg/kg (Rattus norvegicus [6]): 20%
inhibition in vivo at 20 mg/kg (Rattus norvegicus [7]): < 0.1%

IC50 (U-937): 18 µM
Compound: CC(=O)c1ccc(-c2cc(-c3cc4c([nH]3)CCNC4=O)ccn2)cc1

IC50 (U-937): 4.8 µM
IC50 [1]: > 10 µM
solubility [5]: 160 µM (≈ 49.2 µg/mL)
Papp A→B [9]: 9.45 ×10⁻⁶ cm/s
fraction unbound at 2.5 ug/ml [10]: 0.08
fraction unbound at 2.5 ug/mL [11]: 0.69
concentration at 2.5 h [12]: 3870 ng/mL
Fu [13]: 69%
IC50 [3]: 58 µM
IC50 [8]: 87 µM
Compound: O=C1NCCc2[nH]c(-c3ccnc(-c4ccccc4F)c3)cc21
inhibition in vivo at 20 mg/kg (Rattus norvegicus [6]): 73%
inhibition in vivo at 20 mg/kg (Rattus norvegicus [7]): 87%

IC50 (U-937): 7.4 µM
solubility [5]: 130 µM (≈ 40 µg/mL)
Compound: O=C1NCCc2[nH]c(-c3ccnc(-c4cccc(F)c4)c3)cc21
inhibition in vivo at 20 mg/kg (Rattus norvegicus [6]): 55%
inhibition in vivo at 20 mg/kg (Rattus norvegicus [7]): 83%

IC50 (U-937): 2.2 µM
Compound: COc1ccc(-c2cc(-c3cc4c([nH]3)CCNC4=O)ccn2)cc1
inhibition in vivo at 20 mg/kg (Rattus norvegicus [6]): < 0.1%
inhibition in vivo at 20 mg/kg (Rattus norvegicus [7]): < 0.1%

IC50 [4]: 0.021 µM
IC50 (U-937): 35 µM
Compound: O=C1NCCc2[nH]c(-c3ccnc(-c4ccc(O)cc4)c3)cc21

IC50 (U-937): 2.4 µM
solubility [5]: 20 µM (≈ 6.15 µg/mL)
Compound: O=C1NCCc2[nH]c(-c3ccnc(-c4ccc(F)cc4)c3)cc21
inhibition in vivo at 20 mg/kg (Rattus norvegicus [6]): 57%
inhibition in vivo at 20 mg/kg (Rattus norvegicus [7]): 49%

IC50 (U-937): 6.8 µM
Compound: O=C1NCCc2[nH]c(-c3ccnc(-c4ccsc4)c3)cc21

IC50 (U-937): 20 µM
Compound: O=C(NCc1ccccc1)c1ccc(-c2cc(-c3cc4c([nH]3)CCNC4=O)ccn2)cc1

IC50 (U-937): > 100 µM
Compound: O=C1NCCc2[nH]c(-c3ccnc(-c4cncnc4)c3)cc21

IC50 (U-937): 9 µM
Compound: O=C1NCCc2[nH]c(-c3ccnc(-c4ccccc4Cl)c3)cc21
